# “And” between values parts separate entries of the source, which are not always exact repeats. Identical values can stand only once. Like-named read-outs stand apart in the source and are kept apart here.
# Columns and labels:
# [1] = Solubility by the shake-flask method; format: physicochemical; details: for solubility at 24 h: universal buffer
# Experimental: A universal buffer composed of 75 mM trifluoroacetic acid, 25 mM acetic acid, and 25 mM ethylenediamine, adjusted with 1M sodium hydroxide up to pH 7.5, was used (ionic strength, I = 0.1 M). Samples were prepared by adding a weighted amount of solid (enough to obtain saturated solutions) to 2 mL of the buffered solution. After this, solutions were shaken at a controlled temperature (25.0 ± 0.2 °C) for 24 h, but, after 4 h of agitation, the pH was checked and, if necessary, readjusted to the initial value with small amounts of 1 M hydrochloric acid or 1 M sodium hydroxide solution. After the 24 h stirring, samples were left to stand for equilibration for 24 more hours [32, 33, 34]. The pH was measured and phases separated by centrifugation in a Rotanta 460RS centrifuge from Hettich Lab Technology (Tuttlingen, Germany), at a controlled temperature (25 °C) and 3500 rpm for 30 min.
# The remaining solid was dried under vacuum for 30 min and stored at 4 °C until XRPD analysis. […] A Shimadzu (Kyoto, Japan) liquid chromatograph, equipped with two LC-10AD pumps and a SPD-10AV detector, was used. Temperature was controlled at 25.0 ± 0.1 °C with a CTO-10AS column oven. The column was a Symmetry C18, with 5 μm particle size and dimensions of 4.6 × 150 mm from Waters (Milford, MA, USA). Mobile phase was composed of 20 mM phosphate buffer at pH 7 (A) and acetonitrile (B). Elution was in gradient mode (time (min), %B: 0,3; 1,3; 5,25; 10,25; 12,3; 15,3). […] To quantify, six standard solutions were prepared in the linear range (5–60 mgL^−1 for both compounds). Standards were dissolved in an acetonitrile/water mixture at a proportion of 25/75 (v/v). In a first attempt, saturated supernatants were injected directly, and, when necessary, they were appropriately diluted in water to ensure that they fit within the range of calibration.
# [2] = pKa determination by potentiometric titration; format: physicochemical; details: for pKa: 0.15 M KCl aqueous solution
# Experimental: The sample was pre-alkalinized to pH 12 with 0.5 M standardized KOH. Then, it was titrated with standardized 0.5 M HCl. All titrations were carried out at 0.15 M ionic strength and a temperature of 25 °C, under a nitrogen atmosphere. […] The Debye–Hückel equation was used to obtain the thermodynamic pKa values.
# [3] = Intrinsic dissolution rate, small-scale dissolution assay at single GIT pH values; format: physicochemical; details: for % Dissolved at t = 30 min / Dissolution Rate: SD in brackets; for Dissolution Rate: fitting of Equation (1), kdS
# Experimental: Dissolution tests were performed with a small-scale dissolution assay installed in the GlpKaTM titrator. […] Then, 1.5 mL of 0.125 M acetate-phosphate buffer at pH 1.6 was introduced into the vial without wetting the tablet surface. […] The final volume was 15 mL. UV-visible absorption spectra were recorded every 30 s with a fiber-optic probe immersed in the solution. […] Spectral regions where the signal was saturated (A > 1.5) were discarded. Dissolution rate was obtained through the fitting of the first-order Noyes-Whitney exponential equation to the data:(1) [[…]0)) In this equation, [X]t is the weight (g) of compound in solution at a given time (min); […] Dissolution rate is calculated through a refinement process in which S, kd and t0 optimal values are obtained by minimizing the root mean square deviation between the modeled concentrations and the measured ones.
# [4] = pH of saturated Norfloxacin solutions in dissolution media (pHx=0 effect test); format: physicochemical; details: for pH of saturated solution after 24 h: agitation
# Experimental: However, instead of adding a Norfloxacin tablet, the powder was directly weighted into the vials until saturated solutions of Norfloxacin were obtained. Then, the solutions were allowed to stand under agitation at 25 °C for 24 h. After this, the pH of the solutions was measured again. […] This effect is more evident for the API dissolution than for the cocrystal because the amount of API released in the cocrystal is lower compared to the pure API.
# [5] = set-up: method as in doi:10.1016/0378-5173(90)90130-V, PMID 16307530; details: cited from earlier work
# [6] = 4-sector pH dissolution test (pH stepped from 2.0 to 7.4); format: physicochemical; details: 4-sector test
# Experimental: To perform the 4-sector dissolution rate determinations, the same procedure was followed, but, after adjusting the initial pH to 2.0 and monitoring dissolution for 30 min at this pH, the pH was automatically raised to the next value by addition of KOH. Then, dissolution was monitored again for 30 more minutes. This stepping procedure was repeated until dissolution in the four sectors was covered.
# [7] = water, 25 °C and 0 ionic strength, potentiometry, given as ref 37 (authors' unpublished work), read-out: pKa (first)
Structure (SMILES),"pKa [2, 7]",Final Solid Form ([3]; after dissolution at pH 2.0),Final Solid Form ([3]; after dissolution at pH 4.0),Final Solid Form ([3]; after dissolution at pH 5.5),Final Solid Form ([3]; after dissolution at pH 7.4),% Dissolved at t = 30 min ([3]; pH 2.0),Dissolution Rate ([3]; pH 2.0),% Dissolved at t = 30 min ([3]; pH 4.0),Dissolution Rate ([3]; pH 4.0),% Dissolved at t = 30 min ([3]; pH 5.5),Dissolution Rate ([3]; pH 5.5),% Dissolved at t = 30 min ([3]; pH 7.4),Dissolution Rate ([3]; pH 7.4),other results
CCn1cc(C(=O)O)c(=O)c2cc(F)c(N3CCNCC3)cc21 [Norfloxacin],6.35 ± 0.04,Tetrahydrate,Tetrahydrate,Tetrahydrate,Tetrahydrate,100% and 101.2 (6.3) %,4.16 (0.73) μg min^−1,71% and 71.3 (6.9) %,0.79 (0.03) μg min^−1,23% and 23.0 (5.2) %,0.19 (0.02) μg min^−1,9.4 (1.0) %,0.06 (0.01) μg min^−1,"solid phase obtained after the shake-flask experiments (XRPD) ([1]; aqueous buffer, 24 h stirring + 24 h standing, 25 °C): tetrahydrate; intrinsic solubility of the zwitterionic form (S0) ([1]; calculated from shake-flask solubility and Equation (7), pKa' at I = 0.1 M, corresponds to tetrahydrate form): 319 ± 19 µg/mL; solubility at 24 h ([1]; pH 7.25, shake-flask, 25 °C, I = 0.1 M, final pH 7.25, n = 3, solid transformed to tetrahydrate, read-out: solubility): 394 ± 18 µg/mL; solubility at 24 h ([1]; pH 7.5, calculated from shake-flask solubility and Equation (7), pKa' at I = 0.1 M, corresponds to tetrahydrate form, read-out: intrinsic solubility of the zwitterionic form (S0)): 320 ± 20 µg/mL; percentage of compound in the zwitterionic form ([2]; pH 5.5, species distribution (Figure S12)): around 12%; maximum percentage of the zwitterionic form ([2]; pH 7.5, species distribution from pKa values (Figure S12)): around 90%; pKa (second) ([2]; water, 25 °C and 0 ionic strength, potentiometry, given as ref 37 (authors' unpublished work)): 8.80 ± 0.04; % Dissolved at t = 30 min ([3]; pH 2.0, listed as API): complete; % Dissolved at t = 30 min ([3]; pH 7.4, listed as API): 7%; pH of saturated solution after 24 h ([4]; dissolution medium initially at pH 4.0, 25 °C): 5.8; pH of saturated solution after 24 h ([4]; dissolution medium initially at pH 5.5, 25 °C): 6.2; pH of saturated solution after 24 h ([4]; dissolution medium initially at pH 7.4, 25 °C): 7.4; positive pH increment ([4]; initial pH 4.0): 1.8 units; positive pH increment ([4]; initial pH 5.5): 0.7 units; positive pH increment ([4]; initial pH 7.4): 0 units; oral bioavailability [5]: ~ 40%"
CCn1cc(C(=O)O)c(=O)c2cc(F)c(N3CCNCC3)cc21.Oc1cccc(O)c1 [Norfloxacin–resorcinol cocrystal],–,Monohydrate,Monohydrate,Monohydrate,Monohydrate,94.4 (1.1) %,2.53 (1.63) μg min^−1,91.2 (0.9) %,0.70 (0.15) μg min^−1,48.0 (12.5) %,0.33 (0.04) μg min^−1,9.6 (1.0) %,0.19 (0.10) μg min^−1,"% Dissolved at t = 30 min ([3]; pH 5.5, listed as cocrystal): 48%; % Dissolved at t = 30 min ([3]; pH 7.4, listed as cocrystal): 7%; percentage of the API remaining in the solution ([6]; after pH increased to 7.4 (sudden precipitation)): 80%; percentage of Norfloxacin in the solution ([6]; from pH 2.0 to pH 5.5, 30 min at each pH): ~90%; dissolution in the first sector ([6]; pH 2.0, 30 min): almost complete dissolution"
"Oc1cccc(O)c1 [Resorcinol, resorcinol]",9.47 ± 0.02,–,–,–,–,–,–,–,–,–,–,–,–,"pKa ([2]; water, 25 °C and 0 ionic strength, potentiometry, given as ref 37 (authors' unpublished work), read-out: pKa (second)): 11.6 ± 0.04"

# Source: paper PMC8778133 (Pharmaceutics, 2021)
